Assay results published in patent publication US20040235908A1, “3,4-Di-substituted cyclobutene-1,2-diones as CXC-chemokine receptor antagonists” (Schering Corporation, priority 2001, published 2004).

Target: T1, hCXCR2 (Homo sapiens, UniProt P25025)
T1 construct: purchased Biosignal; host or cells: CHO cells overexpressing hCXCR2 (membrane preparation)
T1 sequence (P25025 1-360): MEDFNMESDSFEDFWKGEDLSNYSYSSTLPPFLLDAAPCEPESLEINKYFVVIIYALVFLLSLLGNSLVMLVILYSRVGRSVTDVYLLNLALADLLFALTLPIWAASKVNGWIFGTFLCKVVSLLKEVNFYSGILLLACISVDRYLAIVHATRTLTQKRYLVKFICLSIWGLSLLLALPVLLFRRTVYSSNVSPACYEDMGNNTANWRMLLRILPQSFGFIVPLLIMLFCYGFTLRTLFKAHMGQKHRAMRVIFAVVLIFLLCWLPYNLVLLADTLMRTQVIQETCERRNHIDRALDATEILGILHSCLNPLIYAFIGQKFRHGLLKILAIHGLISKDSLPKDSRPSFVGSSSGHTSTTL
Experiment: CXCR2 SPA receptor binding assay
Details: hCXCR2-CHO overexpressing membranes, [125I]-IL-8 ligand 0.1 nM
Protocol: For each well of a 96 well plate, a reaction mixture of 4 μg hCXCR2-CHO overexpressing membranes (Biosignal) and 200 μg/well WGA-SPA beads (Amersham) in 100 μl was prepared in CXCR2 assay buffer (25 mM HEPES, pH 7.4, 2 mM CaCl2, 1 mM MgCl2). A 0.4 nM stock of ligand, [125I]-IL-8 (NEN), was prepared in the CXCR2 assay buffer. […] stock solutions of test compounds were prepared in DMSO (Sigma). A 6× stock solution of GRO-α (R&D) was prepared in CXCR2 assay buffer. The above solutions were added to a 96-well assay plate (PerkinElmer or Coming) as follows: 10 μl test compound or DMSO, 40 ul CXCR2 assay buffer or GRO-α stock, 100 μl of reaction mixture, 50 μl of ligand stock (Final [Ligand]=0.1 nM). When 40× stock solutions of test compounds in DMSO were prepared, then the above protocol was used except instead 5 μl test compound or DMSO and 45 μl CXCR2 assay buffer were used. The assay plates were shaken for 5 minutes on a plate shaker, then incubated for 2-8 hours before cpm/well were determined in Microbeta Trilux counter (PerkinElmer). % Inhibition of total binding minus non-specific binding (250 nM Gro-α or 50 μM antagonist) was determined and IC50 values calculated.

| IC50 [nM] | SMILES |
| --- | --- |
| 10 | O=C(c1cccc(Nc2c(Nc3ccccc3)c(=O)c2=O)c1O)N1CCOCC1 [Example 45] |
| 28 | CC(C)c1ccccc1Nc1c(Nc2cccc(C(=O)N(C)C)c2O)c(=O)c1=O [Example 64] |
